Reference: patent publication US20070292512A1, “Solid Oral Dosage Form Containing an Enhancer” (priority 2006, published 2007)
“Also recorded” adds a separate entry of the source.

Assays:
Caco-2 monolayers [1] = test: TEER in Caco-2 monolayers; type: cell-based; settings: sodium salts at concentrations of Table 1, with 3H-TRH, over 2 hours
Experimental: (§1) Cell Culture: Caco-2 cells were cultured in Dulbecco's Modified Eagles Medium (DMEM) 4.5 g/L glucose supplemented with 1% (v/v) non-essential amino acids; 10% fetal calf serum and 1% penicillin/streptomycin. […] The cells were grown and expanded in standard tissue culture flasks and were passaged once they attained 100% confluence. The Caco-2 cells were then seeded on polycarbonate filter inserts (Costar; 12 mm diameter, 0.4 μm pore size) at a density of 5×10^5 cells/cm^2 and incubated in six well culture plates with a medium change every second day. Confluent monolayers between day 20 and day 30 seeding on filters and at passages 30-40 were used throughout these studies.
(§2) The transport experiments were performed in Hank's Balanced Salt Solution (HBSS) containing 25 mM N-[2-hydroxyethyl]-piperazine-N′-[2-ethanesulfonic acid] (HEPES) buffer, pH 7.4 at 37° C. Due to variations in solubilities, various concentrations of the different MCFA sodium salts and various apical buffers were used as shown in Table 1. In all cases the basolateral chamber contained regular HBSS+HEPES.
(§3) After removing the cell culture medium, the monolayers were placed in wells containing pre-warmed HBSS (37° C.); 1 ml apically and 2 ml basolaterally. Monolayers were incubated at 37° C. for 30 minutes. Then at time zero, apical HBSS was replaced with the relevant apical test solution containing the radio-labeled compounds with and without the enhancer compound. […] The plates were placed on an orbital shaker in an incubator (37° C.). […] At each 30-minute interval, each insert was transferred to a new well containing 2 ml fresh pre-warmed HBSS. […] Mean values for ^3H-TRH concentrations were calculated for the apical and basolateral solutions at each time point.

Caco-2 monolayers [2] = test: 3H-TRH transepithelial transport (Papp) in Caco-2 monolayers; type: in vitro ADME; settings: sodium salts at concentrations of Table 1
Experimental: as §1, §2, §3

[3] = Closed loop rat model, intraduodenal TRH with enhancer, serum TRH; type: in vivo, Male Wistar rats; settings: intraduodenal bolus 500 or 1000 μg TRH with 35 mg enhancer
Experimental: Male Wistar rats (weight range 250 g-350 g) were anaesthetized with ketamine hydrochloride/acepromazine. […] All intraduodenal dose volumes (for samples and control) were 1 ml/kg. The proximal end of the segment was ligated, and the loop was sprayed with isotonic saline (37° C.) to provide moisture and then replaced in the abdominal cavity avoiding distension. The incision was closed with surgical clips. A group of animals were administered TRH in PBS (100 μg in 0.2 ml) by subcutaneous injection as a reference.

anti-factor Xa activity [4] = test: Closed-loop rat segment, intraileal USP heparin, anti-factor Xa response; type: in vivo; settings: USP heparin 1000 iu
anti-factor Xa activity [5] = test: Dog study of oral heparin tablets, anti-factor Xa; type: in vivo; settings: IR formulations, equivalent dose of heparin, dogs
Experimental: Tablets from batches 3, 7 and 15 in Tables 5 and 6 above were dosed orally to groups of five dogs in a single dose crossover study. […] Blood samples for anti-factor Xa analysis were collected from the jugular vein at various time points.

[6] = Closed-loop rat segment, intraileal USP heparin, APTT response; type: in vivo; settings: USP heparin 1000 iu intraileal, sodium caprate 10 and 35 mg
Description: APTT measurements were taken at various time points.

[7] = dog, in vivo
Experimental: Beagle dogs (10-15 Kg) were sedated with medetomidine (80 μg/kg) and an endoscope was inserted via the mouth, esophagus, and stomach into the duodenum. The test solutions (10 ml) comprising leuprolide acetate (Mallinckrodt Inc, St. Louis, Mo.) with or without enhancer reconstituted in deionized water were administered intraduodenally via the endoscope. Following removal of the endoscope, sedation was reversed using atipamezole (400 μg/kg). The parenteral reference solutions comprising 1 mg Leuprolide reconstituted in 0.5 ml sterile water were administered intravenously and subcutaneously respectively.

[8] = cited from earlier work
HDAC = settings: compared to romidepsin; cited from earlier work
HDAC4 = HDAC4 (Homo sapiens, UniProt P56524); settings: cited from earlier work
HDAC6 = settings: cited from earlier work
in vivo = test: in vivo; set-up: species or system beagle dogs; settings: beagle, dog
Experimental: The study was a single dose crossover study using from 2 to 5 dogs. Fasted animals were dosed weekly with an intravenous dose (reference) or one of three experimental romidepsin formulations administered directly into the duodenum via a surgically implanted cannula. In all cases the administered dose was 0.1 mg/kg body weight. Blood samples were obtained at selected time intervals post dosing and plasma was shipped to Japan Clinical Laboratories (JCL) for romidepsin analyses. Upon receipt of bioanalytical data from JCL, the individual animal plasma data were loaded into an Excel spreadsheet (Microsoft® Office Excel 2003) and the following pharmacokinetic parameters were calculated from the concentration-time data for each subject: Cmax, Tmax, T1/2, AUC(0-t) and % Bioavailability (% F). Pharmacokinetic parameters were calculated using macros written for Excel (Usansky et al., PK Functions for Microsoft Excel (1999) available at: www.boomer.org/[…].doc).

[9] = test system: human tumor xenografts and murine tumors; settings: human tumor xenografts and murine tumors in mouse models; cited from earlier work
HDAC1 = HDAC1 (Homo sapiens, UniProt Q13547); settings: range stated for each enzyme; cited from earlier work
Sequence of HDAC1 (Q13547 whole entry): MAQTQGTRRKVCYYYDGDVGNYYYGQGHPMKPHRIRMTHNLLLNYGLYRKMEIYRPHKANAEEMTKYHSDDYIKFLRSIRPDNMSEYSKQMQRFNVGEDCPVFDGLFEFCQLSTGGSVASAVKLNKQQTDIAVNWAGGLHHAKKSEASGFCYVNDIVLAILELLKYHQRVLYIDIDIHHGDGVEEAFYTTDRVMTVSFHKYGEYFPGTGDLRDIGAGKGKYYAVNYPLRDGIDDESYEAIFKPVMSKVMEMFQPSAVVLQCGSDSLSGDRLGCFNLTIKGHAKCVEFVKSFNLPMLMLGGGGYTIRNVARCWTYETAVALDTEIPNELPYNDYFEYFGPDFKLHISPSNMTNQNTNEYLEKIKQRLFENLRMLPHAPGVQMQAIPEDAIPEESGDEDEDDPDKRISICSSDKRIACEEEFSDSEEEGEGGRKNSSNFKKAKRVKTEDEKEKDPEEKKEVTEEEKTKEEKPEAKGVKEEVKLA

Sequence of HDAC4 (P56524 whole entry, species assumed): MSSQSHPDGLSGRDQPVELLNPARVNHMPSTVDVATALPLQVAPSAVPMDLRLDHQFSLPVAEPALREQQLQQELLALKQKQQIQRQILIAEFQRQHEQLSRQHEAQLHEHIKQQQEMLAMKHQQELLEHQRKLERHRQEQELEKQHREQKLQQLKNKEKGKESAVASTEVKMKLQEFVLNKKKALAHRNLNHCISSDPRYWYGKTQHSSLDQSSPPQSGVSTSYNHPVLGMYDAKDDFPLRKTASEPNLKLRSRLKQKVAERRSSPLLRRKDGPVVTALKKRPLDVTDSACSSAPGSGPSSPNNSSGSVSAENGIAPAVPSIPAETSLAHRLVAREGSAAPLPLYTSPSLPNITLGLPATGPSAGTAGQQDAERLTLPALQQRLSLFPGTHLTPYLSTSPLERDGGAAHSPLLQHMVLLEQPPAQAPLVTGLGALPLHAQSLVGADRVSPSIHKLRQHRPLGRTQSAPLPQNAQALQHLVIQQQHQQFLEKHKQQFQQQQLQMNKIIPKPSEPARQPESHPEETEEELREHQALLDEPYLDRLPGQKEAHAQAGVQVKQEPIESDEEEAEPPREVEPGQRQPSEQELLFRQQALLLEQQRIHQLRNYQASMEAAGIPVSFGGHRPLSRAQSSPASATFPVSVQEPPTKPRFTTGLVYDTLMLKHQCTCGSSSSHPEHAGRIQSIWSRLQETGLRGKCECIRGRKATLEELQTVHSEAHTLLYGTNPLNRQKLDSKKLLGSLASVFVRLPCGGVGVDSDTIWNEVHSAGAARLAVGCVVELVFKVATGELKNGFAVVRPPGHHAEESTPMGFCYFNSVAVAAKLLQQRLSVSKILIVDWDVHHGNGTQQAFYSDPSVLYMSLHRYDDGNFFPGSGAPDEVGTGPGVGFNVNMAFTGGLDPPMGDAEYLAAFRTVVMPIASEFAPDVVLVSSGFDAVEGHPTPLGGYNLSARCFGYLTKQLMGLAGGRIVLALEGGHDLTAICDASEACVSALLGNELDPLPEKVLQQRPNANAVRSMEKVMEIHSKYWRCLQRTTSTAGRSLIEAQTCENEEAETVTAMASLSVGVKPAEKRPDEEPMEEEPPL

For CCCCCCCCCCCC(=O)[O-].[Na+] [Batch C12, sodium laurate], the “effect on TEER compared to the control” value (Caco-2 monolayers [1]) was “some cell damage (reduction in TEER)” and the “Papp for 3H-TRH compared to the control” value (Caco-2 monolayers [2]) was “considerable increases”.
With CCCCCCCCCCCCCC(=O)[O-].[Na+] [Batch C14] the “effect on TEER compared to the control” value (Caco-2 monolayers [1]) was “minimal reduction in TEER” and the “Papp for 3H-TRH compared to the control” value (Caco-2 monolayers [2]) was “considerable increases”.
In the case of CCCCCCCCCCCCCCCCCC(=O)[O-].[Na+] [Batch C18], the “effect on TEER compared to the control” value (Caco-2 monolayers [1]) was “minimal reduction in TEER”.
For CCCCCCCC(=O)[O-].[Na+] [NaC8, sodium caprylate], the “serum levels of TRH over the control TRH solution” value [3] was “significantly increases the serum levels of TRH”.
For CCCCCCCCCC(=O)[O-].[Na+] [NaC10, sodium caprate], the “anti-factor Xa activity relative to control heparin solution” value (anti-factor Xa activity [4]; enhancer 10 mg dose) was “significant increase in anti-factor Xa activity”, the “anti-factor Xa activity relative to control heparin solution” value (anti-factor Xa activity [4]; enhancer 35 mg dose) was “significant increase in anti-factor Xa activity” and the “anti-factor Xa response, NaC10 versus NaC8 enhancer” value (anti-factor Xa activity [5]) was “larger anti-factor Xa response”. For the same compound, the “heparin absorption by APTT response vs control heparin solution” value [6] was “significant increase in absorption”, the “serum levels of TRH over the control TRH solution” value [3] was “significantly increases the serum levels of TRH” and the “effect on TEER compared to the control” value (Caco-2 monolayers [1]) was “minimal reduction in TEER”. For the same compound, the “Papp for 3H-TRH compared to the control” value (Caco-2 monolayers [2]) was “considerable increases”.
In the case of CCNC(=O)[C@@H]1CCCN1C(=O)[C@H](CCCNC(=N)N)NC(=O)[C@H](CC(C)C)NC(=O)[C@@H](CC(C)C)NC(=O)[C@H](Cc1ccc(O)cc1)NC(=O)[C@H](CO)NC(=O)[C@H](Cc1c[nH]c2ccccc12)NC(=O)[C@H](Cc1c[nH]cn1)NC(=O)[C@@H]1CCC(=O)N1 [leuprolide, leuprolide acetate], the “systemic delivery of leuprolide on coadministration with enhancer” value [7] was “considerable enhancer dose dependent enhancement” and the “systemic delivery of leuprolide without enhancer” value [7] was “negligible”.
For C/C=C1\NC(=O)[C@@H](CS)NC(=O)[C@@H](C(C)C)NC(=O)C[C@@H](/C=C/CCS)OC(=O)[C@H](C(C)C)NC1=O [redFK], the “stability in medium and serum” value [8] is given as “rapid inactivation”, the “inhibiting in vivo HDAC activity” value (HDAC) is given as “less active compared to romidepsin” and the “inhibitory effect against HDAC4” value (HDAC4; low nanomolar concentrations) is given as “relatively weak”. The “inhibitory effect against HDAC6” value (HDAC6; low nanomolar concentrations) was “relatively weak; also recorded: almost insensitive”.
In the case of C/C=C1\NC(=O)[C@H]2CSSCC/C=C/[C@H](CC(=O)N[C@H](C(C)C)C(=O)N2)OC(=O)[C@H](C(C)C)NC1=O [romidepsin, (1S,4S,10S,16E,21R)-7-[(2Z)-ethylidene]-4,2,1-diisopropyl-2-oxa-12,13-dithia-5,8,20,23-tetraazabicyclo[8.7.6]tricos-16-ene-3,6,9,19,22-pentanone], the “stability in medium and serum” value [8] is listed as “more stable than redFK”, the “times weaker than redFK in inhibiting HDAC4” value (HDAC4; range stated for each enzyme) is listed as 17-23 times and the “times weaker than redFK in inhibiting HDAC6” value (HDAC6; range stated for each enzyme) is listed as 17-23 times. For the same compound, the bioavailability (in vivo) was at most 28%, the “in vivo antitumor activity” value [9] was “in vivo antitumor activity” and the “times weaker than redFK in inhibiting HDAC1” value (HDAC1) was 17-23 times.
